In the supplement of paper PMC10307832:

Tests used:
Test in all cases: relative viability (nuclei count vs DMSO), 5 days (fraction); higher = more cells survive
Vemurafenib + Vorinostat = compound: CCCS(=O)(=O)Nc1ccc(F)c(C(=O)c2c[nH]c3ncc(-c4ccc(Cl)cc4)cc23)c1F [Vemurafenib] + O=C(CCCCCCC(=O)Nc1ccccc1)NO [Vorinostat] (partner 1 µM)
Summary of the method: (§1)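 Cells from lung cancer lines were seeded into 1536-well plates and, one day later, dosed by pin tool. Treatments were either a single drug or a fixed dose of an anchor drug with five library-drug doses (not always all listed) in √10 steps. After 5 days, nuclei were stained in a one-step fixation (final 0.05% Triton X-100, 1% formaldehyde, 1 ug/ml Hoechst) and counted on 4× images, and relative viability is the treated-to-vehicle nuclei ratio, as the median of duplicate plates.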

Alpelisib + Tozasertib = compound: Cc1nc(NC(=O)N2CCC[C@H]2C(N)=O)sc1-c1ccnc(C(C)(C)C(F)(F)F)c1 [Alpelisib] + Cc1cc(Nc2cc(N3CCN(C)CC3)nc(Sc3ccc(NC(=O)C4CC4)cc3)n2)n[nH]1 [Tozasertib] (partner 0.1 µM)
Summary of the method: as §1

Vemurafenib + Bortezomib = compound: CCCS(=O)(=O)Nc1ccc(F)c(C(=O)c2c[nH]c3ncc(-c4ccc(Cl)cc4)cc23)c1F [Vemurafenib] + CC(C)C[C@H](NC(=O)[C@H](Cc1ccccc1)NC(=O)c1cnccn1)B(O)O [Bortezomib] (partner 0.002 µM)
Summary of the method: as §1

OSI-027 + Lapatinib = compound: COc1cccc2cc(-c3nc([C@H]4CC[C@H](C(=O)O)CC4)n4ncnc(N)c34)[nH]c12 [OSI-027] + CS(=O)(=O)CCNCc1ccc(-c2ccc3ncnc(Nc4ccc(OCc5cccc(F)c5)c(Cl)c4)c3c2)o1 [Lapatinib] (partner 2 µM)
Summary of the method: as §1

| Cell Line | relative viability (Vemurafenib + Vorinostat; first compound 0.03162 µM) | relative viability (Vemurafenib + Vorinostat; first compound 0.1 µM) | relative viability (Vemurafenib + Vorinostat; first compound 0.3162 µM) | relative viability (Vemurafenib + Vorinostat; first compound 1 µM) | relative viability (Alpelisib + Tozasertib; first compound 0.04 µM) | relative viability (Alpelisib + Tozasertib; first compound 0.1265 µM) | relative viability (Alpelisib + Tozasertib; first compound 0.4 µM) | relative viability (Alpelisib + Tozasertib; first compound 1.265 µM) | relative viability (Alpelisib + Tozasertib; first compound 4 µM) | relative viability (Vemurafenib + Bortezomib; first compound 0.03162 µM) | relative viability (Vemurafenib + Bortezomib; first compound 0.1 µM) | relative viability (Vemurafenib + Bortezomib; first compound 0.3162 µM) | relative viability (Vemurafenib + Bortezomib; first compound 1 µM) | relative viability (OSI-027 + Lapatinib; first compound 0.01 µM) | relative viability (OSI-027 + Lapatinib; first compound 0.03162 µM) | relative viability (OSI-027 + Lapatinib; first compound 0.1 µM) | relative viability (OSI-027 + Lapatinib; first compound 0.3162 µM) | relative viability (OSI-027 + Lapatinib; first compound 1 µM) |
| --- | --- | --- | --- | --- | --- | --- | --- | --- | --- | --- | --- | --- | --- | --- | --- | --- | --- | --- |
| NCI-H2342 | 0.623 | 0.785 | 0.755 | 0.787 | 0.419 | 0.473 | 0.389 | 0.401 | 0.367 | – | – | – | – | – | – | – | – | – |
| SW 1573 | 0.655 | 0.767 | 0.473 | 0.537 | 0.172 | 0.149 | 0.175 | 0.151 | 0.166 | 0.896 | 0.945 | 1.03 | 1.07 | 0.941 | 1.14 | 1.05 | 0.989 | 0.636 |
| NCI-H1792 | – | – | – | – | – | – | – | – | – | 0.875 | 0.951 | 0.721 | 0.957 | 0.749 | 0.826 | 0.815 | 0.739 | 0.213 |
| LOU-NH91 | 0.87 | 0.742 | 0.692 | 0.933 | 0.689 | 0.643 | 0.656 | 0.563 | 0.443 | 0.478 | 0.467 | – | 0.534 | 0.727 | 0.702 | 0.626 | 0.598 | 0.482 |
| LC-2-ad | 0.627 | 0.669 | 0.364 | 0.687 | 0.377 | 0.372 | 0.431 | 0.307 | 0.348 | 0.918 | 0.956 | 0.829 | 0.976 | 1.05 | 0.981 | 0.978 | 1.1 | 0.709 |
| HOP-62 | 0.515 | 0.593 | 0.583 | 0.484 | 0.328 | 0.374 | 0.465 | 0.322 | 0.292 | 0.814 | 0.868 | 0.648 | 1.07 | 1.1 | 1.09 | 0.848 | 0.849 | 0.855 |
| NCI-H650 | 0.413 | 0.384 | 0.263 | 0.296 | 0.705 | 0.758 | 0.798 | 0.54 | 0.573 | 0.668 | 0.899 | 0.443 | 0.423 | 0.838 | 0.883 | 0.516 | 0.707 | 0.39 |
| NCI-H1651 | 0.524 | 0.581 | 0.471 | 0.625 | 0.636 | 0.651 | 0.708 | 0.653 | 0.607 | 0.851 | 0.949 | 0.769 | 1 | 0.842 | – | 0.728 | 0.725 | 0.371 |
| CAL-12T | 0.673 | 0.698 | 1.04 | 0.875 | 0.295 | 0.308 | 0.246 | 0.212 | 0.317 | 0.835 | – | – | 0.974 | 0.648 | 0.589 | 0.499 | 0.375 | 0.418 |
| LK-2 | 0.261 | 0.271 | 0.3 | 0.247 | 0.158 | 0.164 | 0.179 | 0.167 | 0.154 | – | – | – | – | 0.861 | 0.789 | 0.609 | 0.385 | 0.268 |
| EKVX | 0.712 | – | 0.745 | 0.936 | 0.346 | 0.308 | 0.499 | 0.333 | 0.198 | 0.895 | – | 1.03 | 1.05 | 0.169 | 0.189 | 0.201 | 0.16 | 0.153 |
| EMC-BAC-2 | 0.361 | 0.411 | – | 0.415 | 0.294 | 0.255 | 0.307 | 0.242 | 0.242 | 0.984 | 1.02 | 0.899 | 0.835 | 0.843 | 0.874 | 0.838 | 0.7 | 0.516 |
| NCI-H520 | 0.68 | 0.714 | 0.718 | 0.497 | 0.449 | 0.461 | 0.462 | 0.351 | 0.309 | 0.46 | 0.487 | 0.722 | 0.454 | 0.832 | 0.835 | 0.666 | 0.408 | 0.235 |
| NCI-H322M | 0.84 | – | 1.11 | 0.829 | 0.496 | 0.435 | 0.515 | 0.383 | 0.284 | 1.2 | – | 1.43 | 1.2 | 0.578 | 0.651 | 0.543 | 0.57 | 0.559 |
| COR-L 105 | 0.838 | – | 0.903 | 0.815 | 0.372 | 0.343 | 0.591 | 0.306 | 0.334 | 0.772 | – | 0.485 | 0.759 | 0.34 | 0.356 | 0.336 | 0.297 | 0.295 |
| NCI-H2170 | 0.733 | – | 0.737 | 0.754 | 0.637 | 0.727 | 0.771 | 0.625 | 0.298 | – | – | – | – | 0.268 | 0.283 | 0.257 | 0.27 | 0.254 |
| NCI-H358 | 0.671 | 0.587 | 0.768 | 0.65 | 0.111 | 0.114 | 0.116 | 0.0852 | 0.0831 | – | – | – | – | 0.444 | 0.475 | 0.394 | 0.389 | 0.309 |
| NCI-H1793 | 0.652 | 0.426 | 0.78 | 0.702 | 0.275 | 0.383 | 0.312 | 0.169 | 0.188 | – | – | – | – | 0.619 | 0.65 | 0.559 | 0.264 | 0.26 |
| NCI-H2405 | 0.911 | 0.987 | – | 1.03 | 0.725 | 0.68 | 0.825 | 0.682 | 0.625 | 0.925 | 0.995 | – | 0.829 | 1.03 | 0.996 | 0.798 | 0.852 | 0.539 |
| NCI-H727 | 1.01 | 0.978 | 1.41 | 1.27 | 0.749 | 0.584 | 0.641 | 0.575 | 0.459 | 0.927 | 0.812 | 1.35 | 0.54 | 0.906 | 0.875 | 0.692 | 0.666 | 0.577 |
